Test results taken from patent publication US20250332178A1, “METHODS OF TREATING MYCOBACTERIAL INFECTIONS USING TETRACYCLINE COMPOUNDS” (priority 2018, published 2025).
Like-named read-outs stand apart in the source and are kept apart here.

Legend:
[1] = system: Bacille Calmette Guerin (BCG); format: cell-based, Mycobacterium bovis; conditions: disk: 30 μg of linezolid
[2] = system: rapid-growing mycobacteria (RGM) isolates; experiment: MIC (CLSI broth dilution), all RGM isolates; format: cell-based, nontuberculous mycobacteria; conditions: all 50 RGM isolates
[3] = system: M. abscessus complex; experiment: MIC (CLSI broth dilution), RGM isolates; format: cell-based; conditions: Mycobacteroides abscessus, read-out: MIC
[4] = system: M. chelonae; experiment: MIC (CLSI broth dilution), RGM isolates; format: cell-based; conditions: Mycobacteroides chelonae, read-out: MIC
[5] = system: M. fortuitum group; experiment: MIC (CLSI broth dilution), RGM isolates; format: cell-based; conditions: Mycolicibacterium fortuitum, read-out: MIC
[6] = system: M. immunogenum group; experiment: MIC (CLSI broth dilution), RGM isolates; format: cell-based; conditions: M. immunogenum, read-out: MIC
[7] = system: M. mucogenium group; experiment: MIC (CLSI broth dilution), RGM isolates; format: cell-based; conditions: read-out: MIC
[8] = system: M. smegmatis group; experiment: MIC (CLSI broth dilution), RGM isolates; format: cell-based; conditions: Mycolicibacterium smegmatis, read-out: MIC
[9] = system: slow-growing NTM isolates; experiment: MIC (CLSI broth dilution), all slow-growing NTM isolates; format: cell-based, nontuberculous mycobacteria; conditions: all slow-growing NTM isolates
[10] = system: M. avium; experiment: MIC (CLSI broth dilution), slow-growing NTM isolates; format: cell-based; conditions: Mycobacterium avium, read-out: MIC
[11] = system: M. chimaera; experiment: as above; format: cell-based; conditions: read-out: MIC
[12] = system: M. intracellulare; experiment: as above; format: cell-based; conditions: Mycobacterium intracellulare, read-out: MIC
[13] = system: M. arupense; experiment: as above; format: cell-based; conditions: isolate 11, Other; read-out: MIC
[14] = system: M. simiae; experiment: as above; format: cell-based; conditions: read-out: MIC

CC(=O)NC[C@H]1CN(c2ccc(N3CCOCC3)c(F)c2)C(=O)O1 [linezolid]
No growth on plate: Results/Observations (growth) [1]
16 µg/mL: MIC ([3]; isolate 1, M. abscessus complex, erm gene type MAB30) | MIC ([3]; isolate 2, M. abscessus complex, erm gene type MAB30) | MIC ([3]; isolate 4, M. abscessus complex, erm gene type massiliense) | MIC ([3]; isolate 7, M. abscessus complex, erm gene type Type 1 abscessus) | MIC ([3]; isolate 8, M. abscessus complex, erm gene type Type 1 abscessus) | MIC ([3]; isolate 10, M. abscessus complex, erm gene type Type 1 abscessus) | MIC ([3]; isolate 13, M. abscessus complex, erm gene type Type 6 abscessus) | MIC ([3]; isolate 15, M. abscessus complex, erm gene type Type 7 abscessus) | MIC ([3]; isolate 17, M. abscessus complex, erm gene type Type 8 abscessus) | MIC ([4]; isolate 18, M. chelonae) | MIC ([4]; isolate 21, M. chelonae) | MIC ([4]; isolate 22, M. chelonae) | MIC ([11]; isolate 4, MAC) | MIC ([12]; isolate 7, MAC)
≤ 2 µg/mL: MIC ([3]; isolate 14, M. abscessus complex, erm gene type Type 6 abscessus) | MIC ([3]; isolate 16, M. abscessus complex, erm gene type Type 7 abscessus) | MIC ([5]; isolate 23, M. fortuitum group, M. fortuitum) | MIC ([5]; isolate 26, M. fortuitum group, M. porcinum) | MIC ([5]; isolate 28, M. fortuitum group, M. porcinum/M. boenickei) | MIC ([5]; isolate 30, M. fortuitum group, M. porcinum/M. boenickei) | MIC ([5]; isolate 31, M. fortuitum group, M. senegalense) | MIC ([5]; isolate 32, M. fortuitum group, M. senegalense) | MIC ([5]; isolate 33, M. fortuitum group, M. senegalense) | MIC ([5]; isolate 34, M. fortuitum group, M. senegalense) | MIC ([7]; isolate 39, M. mucogenicum group, M. mucogenicum) | MIC ([7]; isolate 40, M. mucogenicum group, M. mucogenicum) | MIC ([7]; isolate 41, M. mucogenicum group, M. mucogenicum) | MIC ([7]; isolate 42, M. mucogenicum group, M. mucogenicum) | MIC ([7]; isolate 43, M. mucogenicum group, M. phocaicum) | MIC ([7]; isolate 44, M. mucogenicum group, M. phocaicum) | MIC ([7]; isolate 45, M. mucogenicum group, M. phocaicum) | MIC ([7]; isolate 46, M. mucogenicum group, M. phocaicum) | MIC ([7]; isolate 48, M. mucogenicum group, M. phocaicum) | MIC ([8]; isolate 49, M. smegmatis group, M. goodii)
32 µg/mL: MIC90 ([2]; read-out: MIC90) | MIC ([3]; isolate 3, M. abscessus complex, erm gene type MAB30) | MIC ([3]; isolate 6, M. abscessus complex, erm gene type Type 1 abscessus) | MIC ([3]; isolate 9, M. abscessus complex, erm gene type Type 1 abscessus) | MIC ([6]; isolate 35, M. immunogenum group) | MIC ([6]; isolate 37, M. immunogenum group) | MIC ([6]; isolate 38, M. immunogenum group) | MIC50 ([9]; read-out: MIC50) | MIC ([10]; isolate 1, MAC) | MIC ([10]; isolate 2, MAC) | MIC ([11]; isolate 5, MAC) | MIC ([12]; isolate 6, MAC) | MIC ([12]; isolate 8, MAC) | MIC ([12]; isolate 9, MAC) | MIC [13] | MIC ([14]; isolate 14, Other)
4 µg/mL: MIC50 ([2]; read-out: MIC50) | MIC ([3]; isolate 5, M. abscessus complex, erm gene type massiliense/subsp. abs hybrid) | MIC ([4]; isolate 20, M. chelonae) | MIC ([5]; isolate 24, M. fortuitum group, M. fortuitum) | MIC ([5]; isolate 25, M. fortuitum group, M. fortuitum) | MIC ([5]; isolate 27, M. fortuitum group, M. porcinum) | MIC ([5]; isolate 29, M. fortuitum group, M. porcinum/M. boenickei) | MIC ([7]; isolate 47, M. mucogenicum group, M. phocaicum) | MIC ([8]; isolate 50, M. smegmatis group, M. wolinskyi)
> 32 µg/mL: MIC90 ([9]; read-out: MIC90) | MIC ([10]; isolate 3, MAC) | MIC ([12]; isolate 10, MAC) | MIC ([14]; isolate 13, Other) | MIC ([14]; isolate 15, Other)
8 µg/mL: MIC ([3]; isolate 11, M. abscessus complex, erm gene type Type 6 abscessus) | MIC ([3]; isolate 12, M. abscessus complex, erm gene type Type 6 abscessus) | MIC ([4]; isolate 19, M. chelonae) | MIC ([6]; isolate 36, M. immunogenum group)
